In patent publication US9440957B2, “Compounds and compositions for modulating EGFR Activity” (Novartis AG, priority 2012, dated 2016):
Read-outs that look alike come from different tables or passages of the source.

Experiments:
EGFR(L858R/T790M) = biological target: T1, EGFR(L858R/T790M) (Homo sapiens, UniProt P00533, L858R/T790M); assay: EGFR biochemical assay (HTRF), IC50 determinations
T1 construct: purchased from Carna (GST-a.a. 669-1210)
Description: All EGFR biochemical assays were carried out by HTRF method. […] The substrate peptide Biotin-TK-peptide was purchased from Cis-Bio. […] All reactions were carried out at room temperature in white ProxiPlate™ 384-well Plus plates (PerkinElmer) and were quenched with 5 μL of 0.2 M EDTA at 60 min. Five L of the detection reagents (2.5 ng PT66K and 0.05 μg SAXL per well) were added, the plates were incubated at room temperature for 1 h and then read in EnVision reader. […] For no-preincubation condition, the compounds were added to the assay solution containing ATP and peptide, and the reaction was initiated by addition of enzyme. For pre-incubation conditions, the compounds were added to the assay solution containing enzyme and peptide, and pre-incubated at room temperature for desired period of time, then the reaction was initiated by addition of ATP.

[1] = biological target: human EGFR WT (NIH/3T3 cells, EGF-induced) (Homo sapiens, UniProt P00533); assay: EGFR target modulation in engineered NIH/3T3 cell lines (phospho-EGFR Y1068 AlphaLISA), EGFR WT; format: cell-based; conditions: engineered NIH/3T3 cells, read-out: NIH3T3 IC50 (μM) EGFR (WT)
Description: (§1) EGFR Target Modulation in Engineered NIH/3T3 Cell Lines Tissue Culture.
(§2) The cells were harvested with 0.05% Trypsin/EDTA (Hyclone #SH30236.01), re-suspended in 5% FBS/DMEM Pen/Strep without Puromycin and plated at 9,000 cells per well in 50 μl of media in a 384-well black plate with clear bottoms (Greiner #789068G). The cells were allowed to incubate overnight in a 37° C., 5% CO2 humidified tissue culture incubator. A 12-point test compound curve was prepared by serial diluting a 10 μM stock 1:3 in DMSO in a 384-well compound plate (Greiner #789201L). The serial diluted compounds were transferred to the plate containing cells by using a 50 nl Pin Head device (Perkin Elmer) and the cells were placed back in the incubator for 3 hours. Only the EGFR WT-expressing cells were induced with 50 ng/ml EGF (Preprotech #AF-100-15) for 5 minutes before lysis. […] The plates were shaken at 4° C. for 5 minutes with foil top at maximum speed. […] The plates were sealed with a foil top and frozen at −80° C. and thawed when needed.
(§3) The frozen aliquots were thawed and briefly centrifuged. All antibodies and beads were diluted in 1× AlphaLISA HiBlock Buffer (PE #AL004C). […] Goat anti-total EGFR (R&D Systems #AF231) was added and allowed to equilibrate for 1 hour at room temperature at 1 nM final concentration.
(§4) With these parameters, the IC50's for each compound in each cell line was calculated using non-linear curve fitting analysis.

[2] = biological target: human EGFR L858R (NIH/3T3 cells) (Homo sapiens, UniProt P00533, L858R); assay: EGFR target modulation in engineered NIH/3T3 cell lines (phospho-EGFR Y1068 AlphaLISA), EGFR L858R; format: cell-based; conditions: engineered NIH/3T3 cells, read-out: NIH3T3 IC50 (μM) EGFR (L858R)
Description: as §1, §2, §3, §4

[3] = biological target: human EGFR L858R/T790M (NIH/3T3 cells) (Homo sapiens, UniProt P00533, L858R/T790M); assay: EGFR target modulation in engineered NIH/3T3 cell lines (phospho-EGFR Y1068 AlphaLISA), EGFR L858R/T790M; format: cell-based; conditions: engineered NIH/3T3 cells, read-out: NIH3T3 IC50 (μM) EGFR (L858R/T790M)
Description: as §1, §2, §3, §4

[4] = EGFR (L858R/T790M) with 90 min pre-incubation, read-out: IC50 (μM) Column B
[5] = EGFR (L858R/T790M) with no pre-incubation, read-out: IC50 (μM) Column A

human EGFR L858R/T790M (NIH/3T3 cells), sequence (P00533 25-1210 T790M/L858R): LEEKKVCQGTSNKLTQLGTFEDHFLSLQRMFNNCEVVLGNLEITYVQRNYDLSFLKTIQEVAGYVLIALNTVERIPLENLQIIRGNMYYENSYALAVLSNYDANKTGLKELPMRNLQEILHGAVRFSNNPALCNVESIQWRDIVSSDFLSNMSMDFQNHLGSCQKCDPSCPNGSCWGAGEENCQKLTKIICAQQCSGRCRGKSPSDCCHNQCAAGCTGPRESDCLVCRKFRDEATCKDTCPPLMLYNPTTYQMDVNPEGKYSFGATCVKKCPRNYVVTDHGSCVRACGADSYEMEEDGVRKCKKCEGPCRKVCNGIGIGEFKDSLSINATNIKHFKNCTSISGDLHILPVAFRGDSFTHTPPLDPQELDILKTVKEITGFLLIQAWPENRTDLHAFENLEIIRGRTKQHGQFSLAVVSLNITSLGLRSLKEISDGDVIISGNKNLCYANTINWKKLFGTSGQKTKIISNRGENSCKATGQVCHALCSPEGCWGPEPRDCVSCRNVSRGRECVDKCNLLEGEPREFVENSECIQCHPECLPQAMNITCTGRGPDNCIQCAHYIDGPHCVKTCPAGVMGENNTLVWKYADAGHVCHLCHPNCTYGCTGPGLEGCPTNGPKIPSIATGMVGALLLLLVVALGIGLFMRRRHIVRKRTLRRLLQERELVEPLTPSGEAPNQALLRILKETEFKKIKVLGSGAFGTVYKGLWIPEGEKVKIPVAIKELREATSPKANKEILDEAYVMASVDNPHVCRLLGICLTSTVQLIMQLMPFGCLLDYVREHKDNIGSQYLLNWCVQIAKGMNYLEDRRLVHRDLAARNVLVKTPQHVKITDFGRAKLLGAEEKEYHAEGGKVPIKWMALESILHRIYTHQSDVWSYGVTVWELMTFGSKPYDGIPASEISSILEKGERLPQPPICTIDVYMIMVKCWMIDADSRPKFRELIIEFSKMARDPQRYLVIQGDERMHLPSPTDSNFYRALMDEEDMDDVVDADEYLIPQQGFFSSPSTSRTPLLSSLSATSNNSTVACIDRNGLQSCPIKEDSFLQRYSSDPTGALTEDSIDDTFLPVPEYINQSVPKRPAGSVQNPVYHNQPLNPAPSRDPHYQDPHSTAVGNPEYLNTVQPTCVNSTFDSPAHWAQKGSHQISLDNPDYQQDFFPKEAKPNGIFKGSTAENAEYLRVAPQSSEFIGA
T1 sequence (P00533 669-1210 T790M/L858R): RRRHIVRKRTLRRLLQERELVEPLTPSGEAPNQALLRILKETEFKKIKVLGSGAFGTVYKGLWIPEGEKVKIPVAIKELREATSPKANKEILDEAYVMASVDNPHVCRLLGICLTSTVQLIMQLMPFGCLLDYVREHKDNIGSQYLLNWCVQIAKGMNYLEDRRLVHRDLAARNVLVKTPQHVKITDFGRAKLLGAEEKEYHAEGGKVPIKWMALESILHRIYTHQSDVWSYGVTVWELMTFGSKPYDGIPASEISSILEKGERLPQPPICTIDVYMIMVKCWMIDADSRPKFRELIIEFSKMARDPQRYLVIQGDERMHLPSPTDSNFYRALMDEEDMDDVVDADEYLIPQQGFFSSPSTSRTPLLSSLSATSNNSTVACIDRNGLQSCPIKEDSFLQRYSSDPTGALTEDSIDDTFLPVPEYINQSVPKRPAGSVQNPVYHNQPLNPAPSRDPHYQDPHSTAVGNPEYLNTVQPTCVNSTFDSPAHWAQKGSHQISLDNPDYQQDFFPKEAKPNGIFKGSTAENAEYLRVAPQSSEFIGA
human EGFR WT (NIH/3T3 cells, EGF-induced), sequence (P00533 25-1210): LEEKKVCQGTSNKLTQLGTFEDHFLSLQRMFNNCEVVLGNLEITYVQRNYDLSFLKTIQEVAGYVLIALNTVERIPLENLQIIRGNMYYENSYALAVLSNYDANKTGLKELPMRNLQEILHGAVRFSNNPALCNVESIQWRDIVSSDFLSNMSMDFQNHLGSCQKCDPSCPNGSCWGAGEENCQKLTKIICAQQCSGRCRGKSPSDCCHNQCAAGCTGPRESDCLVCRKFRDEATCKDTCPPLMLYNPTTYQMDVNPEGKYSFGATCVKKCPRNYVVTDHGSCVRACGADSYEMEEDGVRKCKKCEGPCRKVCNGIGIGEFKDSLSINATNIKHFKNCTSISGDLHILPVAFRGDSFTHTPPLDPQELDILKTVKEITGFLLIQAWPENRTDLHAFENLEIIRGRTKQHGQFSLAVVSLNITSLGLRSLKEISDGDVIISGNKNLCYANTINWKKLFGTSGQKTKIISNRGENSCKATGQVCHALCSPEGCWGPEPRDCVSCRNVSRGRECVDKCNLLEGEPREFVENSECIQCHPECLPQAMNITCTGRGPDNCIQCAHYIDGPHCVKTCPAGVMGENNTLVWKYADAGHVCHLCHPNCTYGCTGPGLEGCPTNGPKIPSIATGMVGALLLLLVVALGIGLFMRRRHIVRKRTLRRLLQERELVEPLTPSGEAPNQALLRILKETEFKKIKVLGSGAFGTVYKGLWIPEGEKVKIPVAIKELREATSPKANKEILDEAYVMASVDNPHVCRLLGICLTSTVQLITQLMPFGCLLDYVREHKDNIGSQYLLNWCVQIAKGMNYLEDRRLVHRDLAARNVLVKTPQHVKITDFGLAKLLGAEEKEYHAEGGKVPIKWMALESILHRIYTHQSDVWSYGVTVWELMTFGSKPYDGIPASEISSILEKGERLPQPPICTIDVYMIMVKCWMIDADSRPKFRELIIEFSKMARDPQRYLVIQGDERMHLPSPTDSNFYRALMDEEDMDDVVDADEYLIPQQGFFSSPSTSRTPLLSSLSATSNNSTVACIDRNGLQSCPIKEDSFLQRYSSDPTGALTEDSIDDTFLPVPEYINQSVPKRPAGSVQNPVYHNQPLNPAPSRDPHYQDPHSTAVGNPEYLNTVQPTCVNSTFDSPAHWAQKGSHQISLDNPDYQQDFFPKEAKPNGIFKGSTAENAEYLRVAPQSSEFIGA
human EGFR L858R (NIH/3T3 cells), sequence (P00533 25-1210 L858R): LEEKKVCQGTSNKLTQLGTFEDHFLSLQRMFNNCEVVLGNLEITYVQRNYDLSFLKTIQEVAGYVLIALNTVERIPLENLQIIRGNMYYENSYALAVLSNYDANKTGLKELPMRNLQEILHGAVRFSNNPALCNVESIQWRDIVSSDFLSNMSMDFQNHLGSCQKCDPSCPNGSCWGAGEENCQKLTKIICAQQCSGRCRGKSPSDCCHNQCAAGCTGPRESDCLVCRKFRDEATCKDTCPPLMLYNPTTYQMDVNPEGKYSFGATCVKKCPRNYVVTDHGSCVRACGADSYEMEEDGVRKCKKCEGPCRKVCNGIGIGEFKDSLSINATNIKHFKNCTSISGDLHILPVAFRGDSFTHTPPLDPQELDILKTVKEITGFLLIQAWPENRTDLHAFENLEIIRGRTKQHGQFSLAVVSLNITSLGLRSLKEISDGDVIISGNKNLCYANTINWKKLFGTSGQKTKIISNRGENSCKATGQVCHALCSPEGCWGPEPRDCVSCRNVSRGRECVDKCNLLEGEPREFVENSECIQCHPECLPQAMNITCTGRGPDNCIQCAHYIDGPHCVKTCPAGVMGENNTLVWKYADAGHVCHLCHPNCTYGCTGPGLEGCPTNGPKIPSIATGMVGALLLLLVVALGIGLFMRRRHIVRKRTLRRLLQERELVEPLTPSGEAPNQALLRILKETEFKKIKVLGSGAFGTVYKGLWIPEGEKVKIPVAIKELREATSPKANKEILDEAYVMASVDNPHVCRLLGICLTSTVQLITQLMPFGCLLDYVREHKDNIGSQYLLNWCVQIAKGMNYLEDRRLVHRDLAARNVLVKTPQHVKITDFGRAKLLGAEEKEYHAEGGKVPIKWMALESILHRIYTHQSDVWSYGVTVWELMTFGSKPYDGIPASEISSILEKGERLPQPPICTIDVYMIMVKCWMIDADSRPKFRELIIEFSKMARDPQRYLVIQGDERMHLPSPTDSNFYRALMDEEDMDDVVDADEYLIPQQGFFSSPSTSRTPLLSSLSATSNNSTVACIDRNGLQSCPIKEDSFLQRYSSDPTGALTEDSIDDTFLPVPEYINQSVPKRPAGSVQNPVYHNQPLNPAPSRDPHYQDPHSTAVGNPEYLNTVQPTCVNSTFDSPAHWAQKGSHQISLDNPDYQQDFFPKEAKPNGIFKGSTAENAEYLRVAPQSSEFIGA

SMILES | IC50 (EGFR(L858R/T790M); [4]) | IC50 (EGFR(L858R/T790M); [5]) | IC50 [1] | IC50 [2] | IC50 [3]
Cc1cccc2nc(NC(=O)c3cnccn3)n(C3CCCCN(C(=O)/C=C/CN(C)C)C3)c12 (stereo not shown) [Example 17-38] | 0.006 µM | 0.117 µM | 1.92 µM | 0.093 µM | 0.049 µM
C=CC(=O)N1CCCCC(n2c(NC(=O)c3ccccc3)nc3cccc(C(=O)N4CCS(=O)(=O)CC4)c32)C1 (stereo not shown) [Example 17-115] | 0.013 µM | 3.5 µM | > 10 µM | 1.6 µM | 0.165 µM
C=C(CN1CCCCC1)C(=O)N1CCCC[C@@H](n2c(NC(=O)c3ccnnc3)nc3cccc(C)c32)C1 [Example 17-90] | 0.013 µM | 0.199 µM | 0.76 µM | 0.054 µM | 0.055 µM
Cc1cccc2nc(NC(=O)c3cccnc3)n(C3CCCCN(C(=O)/C=C/CN(C)C)C3)c12 (stereo not shown) [Example 17-23] | < 0.001 µM | 0.003 µM | 0.149 µM | 0.004 µM | 0.003 µM
Cc1cccc2nc(NC(=O)c3cnco3)n(C3CCCCN(C(=O)/C=C/CN(C)C)C3)c12 (stereo not shown) [Example 17-5] | 0.001 µM | 0.022 µM | 0.172 µM | 0.008 µM | 0.011 µM
Cc1cccc2nc(NC(=O)c3cccc(C(F)(F)F)c3)n([C@H]3COCCN(C(=O)/C=C/CN(C)C)C3)c12 [Example 17-6] | 0.01 µM | 0.189 µM | 6 µM | 0.7 µM | 0.244 µM
Cc1cccc2nc(NC(=O)c3cccc(Cl)c3F)n(C3CCCCN(C(=O)/C=C/CN(C)C)C3)c12 (stereo not shown) [Example 17-31] | < 0.001 µM | 0.016 µM | 0.75 µM | 0.019 µM | 0.005 µM
Cc1cccc2nc(NC(=O)c3cc(F)cc(F)c3)n(C3CCCCN(C(=O)/C=C/CN(C)C)C3)c12 (stereo not shown) [Example 17-22] | < 0.001 µM | 0.003 µM | 0.271 µM | 0.004 µM | 0.002 µM
CN(C)C/C=C/C(=O)N1CCC[C@@H](n2c(NC(=O)c3cccc(C(F)(F)F)c3)nc3cc(CO)ccc32)C1 [Example 17-143] | 0.014 µM | 0.233 µM | > 10 µM | 0.313 µM | 0.046 µM
C=CC(=O)N1CCCC[C@@H](n2c(NC(=O)c3ccccc3)nc3cccc(CO)c32)C1 [Example 17-131] | < 0.001 µM | 0.005 µM | 0.311 µM | 0.01 µM | 0.002 µM
Cc1cccc2nc(NC(=O)c3ccnc(C(F)(F)F)c3)n([C@H]3CCCCN(C(=O)/C=C/CN(C)C)C3)c12 (single isomer, unassigned) [Example 21-1] | 0.012 µM | 0.171 µM | > 10 µM | 2.23 µM | 0.12 µM
C=CC(=O)N1CCCC[C@H](n2c(NC(=O)c3cccc(C(F)(F)F)c3)nc3cccc(C)c32)C1 (single isomer, unassigned) [Example 21-3] | 0.098 µM | 0.7 µM | > 10 µM | 2.2 µM | 0.45 µM
Cc1cc(C(=O)Nc2nc3cccc(Cl)c3n2[C@@H]2CCCCN(C(=O)/C=C/CN3CC[C@H](O)C3)C2)ccn1 [Example 3-7] | < 0.001 µM | 0.006 µM | 0.89 µM | 0.009 µM | 0.021 µM
C=CC(=O)N1CCC[C@@H](n2c(NC(=O)c3cccc(C(F)(F)F)c3)nc3cc(CN4CCC(F)(F)C4)ccc32)C1 [Example 17-125] | 0.003 µM | 0.068 µM | > 7.6 µM | 0.087 µM | 0.013 µM
C=C(CN(CC)CC)C(=O)N1CCCC[C@@H](n2c(NC(=O)c3ccnnc3)nc3cccc(C)c32)C1 [Example 17-92] | 0.012 µM | 0.213 µM | 1.83 µM | 0.043 µM | 0.057 µM
Cc1cc(C(=O)Nc2nc3cccc(C)c3n2C2CCCCN(C(=O)/C=C/CN(C)C)C2)oc1C (stereo not shown) [Example 17-59] | 0.006 µM | 0.105 µM | 0.37 µM | 0.02 µM | 0.019 µM
C/C=C/C(=O)N1CCCCC(n2c(NC(=O)c3cccc(C(F)(F)F)c3)nc3cccc(C)c32)C1 (stereo not shown) [Example 17-20] | 0.032 µM | 0.43 µM | > 10 µM | 0.75 µM | 0.073 µM
Cc1ncc(C(=O)Nc2nc3cccc(C)c3n2C2CCCCN(C(=O)/C=C/CN(C)C)C2)s1 (stereo not shown) [Example 17-64] | 0.001 µM | 0.02 µM | 0.021 µM | 0.002 µM | 0.005 µM
C=CC(=O)N1CCCC[C@@H](n2c(NC(=O)c3ccnc(C)c3)nc3cc(CN4CC[C@H](O)C4)cc(C)c32)C1 [Example 17-146] | < 0.001 µM | 0.002 µM | 0.137 µM | 0.003 µM | 0.004 µM
Cc1cccc2nc(NC(=O)c3ccnc(C(C)(C)C)c3)n(C3CCCCN(C(=O)/C=C/CN(C)C)C3)c12 (stereo not shown) [Example 17-61] | < 0.001 µM | 0.004 µM | 0.011 µM | < 0.001 µM | 0.003 µM
CC1=C(C(=O)N2CCCC[C@@H](n3c(NC(=O)c4ccnnc4)nc4cccc(C)c43)C2)S(=O)(=O)CCO1 [Example 17-88] | 0.04 µM | 0.39 µM | 8.4 µM | 0.158 µM | 0.209 µM
Cc1cccc2nc(NC(=O)c3cccc(C(F)(F)F)c3)n([C@@H]3COCCN(C(=O)/C=C/CN(C)C)C3)c12 [Example 17-7] | < 0.001 µM | 0.005 µM | 0.55 µM | 0.015 µM | 0.003 µM
C=CC(=O)N1CCOCC(n2c(NC(=O)c3cccc(C(F)(F)F)c3)nc3cccc(C)c32)C1 (single isomer, unassigned) [Example 21-7A] | 0.56 µM | 2.01 µM | > 10 µM | 3.2 µM | 0.49 µM
